Measurements taken from the supplement of paper PMC11208160.

experiment: recombinant barcode read abundance after kanamycin selection (control-corrected) (log10(CPM+1)); higher = more efficient recombination; sequences stand for … in AGTGCAGAGAAAATCGGCCAGTTTTCTCTGCCTGCAGTCCGCATGCCGT…AGATTTATGCAGCGGACTGCCTTTCTCCCAAAGTGATAAACCGGACAGTATCATGGACCGGTTTTCCCGGTAATCCGTATTTGCAAGGTTGGTTTCACT; site = the 11-nt target
Method: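 Pooled E. coli target-specificity screen for the IS621 bridge recombinase. Each library plasmid pairs an 11-nt target (CT core) with a bridge RNA whose target-binding loop (9-nt LTG + 4-nt RTG) is reprogrammed; the rest of the 177-nt WT IS621 bridge RNA scaffold is fixed. The plasmid is co-electroporated with a WT donor plasmid; recombinase is induced with 0.1 mM IPTG and recombinants are selected on kanamycin. Recombinant barcodes are sequenced, converted to CPM, averaged over two biological replicates and corrected by the unselected control CPM. Molecule = full bridge RNA written as DNA: LTG = specificity nt 1-9, RTG = reverse complement of specificity nt 8-11, in the WT scaffold.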
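Further: IS621 recombinase and bridge RNA in Escherichia coli cells.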

Sequence	recombinant barcode read abundance (log10)
ACTTGGACTTGGGTTCTAACCTGTTGCAT (site ACTTGGACTAT)	1.79
ACTTGGACTTGGGTTCTAACCTGTTGCAT (site ACTTGTACTAT)	0.0581
ACTTGGCCTTGGGTTCTAACCTGTTGCTG (site ACGTGGCCTCA)	0.111
ACTTGGCCTTGGGTTCTAACCTGTTGCTG (site ACTTGGCCTCA)	0.0699
ACTTTCCCTTGGGTTCTAACCTGTTGCCT (site ACTTTCCCTAG)	0.424
ACTTTCCCTTGGGTTCTAACCTGTTGCCT (site GCTTTGCCTAG)	0.0175
AGAAGCACTTGGGTTCTAACCTGTTGCCA (site AGAAGCACTTG)	0.783
AGAAGCACTTGGGTTCTAACCTGTTGCCA (site CTGTCTCCTAC)	0.00729
AGAAGCCCTTGGGTTCTAACCTGTTGCCT (site AAAAGCCCTAG)	0.134
AGAAGCCCTTGGGTTCTAACCTGTTGCCT (site ACAAGCCCTAG)	0.269
AGAAGCCCTTGGGTTCTAACCTGTTGCCT (site AGAAGCCCTAG)	1.51
AGAAGCCCTTGGGTTCTAACCTGTTGCCT (site ATAAGCCCTAG)	0.0722
AGAAGTCCTTGGGTTCTAACCTGTTGCCG (site AGAAGTCCTCA)	0.236
AGAAGTCCTTGGGTTCTAACCTGTTGCCG (site AGAAGTCCTCC)	0.121
AGAAGTCCTTGGGTTCTAACCTGTTGCCG (site AGAAGTCCTCG)	0.971
AGAAGTCCTTGGGTTCTAACCTGTTGCCG (site AGAAGTCCTCT)	0.221
AGAATAGCTTGGGTTCTAACCTGTTGCAG (site AGAATAGCTCT)	2.13
AGAATAGCTTGGGTTCTAACCTGTTGCAG (site AGGATAGCTCA)	0.0664
AGAATGTCTTGGGTTCTAACCTGTTGCCT (site AGAACGTCTAG)	0.0676
AGAATGTCTTGGGTTCTAACCTGTTGCCT (site AGAATGTCTAG)	1.98
AGACCTCCTTGGGTTCTAACCTGTTGCTT (site AGACATCCTAA)	0.0481
AGACCTCCTTGGGTTCTAACCTGTTGCTT (site AGACCTCCTAA)	1.39
AGACCTCCTTGGGTTCTAACCTGTTGCTT (site AGACGTCCTAA)	0.138
AGACCTCCTTGGGTTCTAACCTGTTGCTT (site AGACTTCCTAA)	0.0176
AGACCTTCTTGGGTTCTAACCTGTTGCCT (site ACACCGTCTAG)	0.0168

Sequence	recombinant barcode read abundance (log10)
AGACCTTCTTGGGTTCTAACCTGTTGCCT (site AGACCTTCTAG)	1.55
AGACGTACTTGGGTTCTAACCTGTTGCGT (site AGACGTACTAC)	1.82
AGACGTACTTGGGTTCTAACCTGTTGCGT (site TAGTTATCTTA)	0.102
AGAGAGACTTGGGTTCTAACCTGTTGCAC (site AGAGAGACTGT)	2.18
AGAGAGACTTGGGTTCTAACCTGTTGCAC (site TGATAGACTGT)	0.169
AGAGAGACTTGGGTTCTAACCTGTTGCCT (site AGAGAGACTAG)	2.43
AGAGAGACTTGGGTTCTAACCTGTTGCCT (site AGAGCGACTAG)	0.0685
AGAGAGACTTGGGTTCTAACCTGTTGCCT (site AGAGGGACTAG)	0.27
AGAGAGACTTGGGTTCTAACCTGTTGCCT (site AGAGTGACTAG)	0.185
AGAGCCTCTTGGGTTCTAACCTGTTGCTA (site AGAGCCTCTTA)	2.36
AGAGCCTCTTGGGTTCTAACCTGTTGCTA (site TTCAGGGCTCT)	0.0371
AGATCATCTTGGGTTCTAACCTGTTGCTT (site AGACCATCTAG)	0.0425
AGATCATCTTGGGTTCTAACCTGTTGCTT (site AGATCATCTAA)	0.278
AGATCCGCTTGGGTTCTAACCTGTTGCCT (site AGATCCGCTAG)	1.3
AGATCCGCTTGGGTTCTAACCTGTTGCCT (site CGGTCCGCTAG)	0.346
AGATCTCCTTGGGTTCTAACCTGTTGCCT (site AGAGCTCCTCG)	0.231
AGATCTCCTTGGGTTCTAACCTGTTGCCT (site AGATCTCCTAG)	0.313
AGATGGCCTTGGGTTCTAACCTGTTGCAT (site AGATGGACTCT)	0.152
AGATGGCCTTGGGTTCTAACCTGTTGCAT (site AGATGGCCTAT)	0.991
AGATGTACTTGGGTTCTAACCTGTTGCTG (site ACATGTACTCT)	0.0665
AGATGTACTTGGGTTCTAACCTGTTGCTG (site AGATGTACTCA)	0.958
AGATTAGCTTGGGTTCTAACCTGTTGCCG (site AGATTAGCTCG)	1.13
AGATTAGCTTGGGTTCTAACCTGTTGCCG (site GCGGATCCTTA)	0.0251
AGATTTCCTTGGGTTCTAACCTGTTGCCT (site AAATTTCCTAG)	0.0272
AGATTTCCTTGGGTTCTAACCTGTTGCCT (site ACATTTCCTAG)	0.218

Sequence	recombinant barcode read abundance (log10)
AGATTTCCTTGGGTTCTAACCTGTTGCCT (site AGATTTCCTAG)	0.326
AGATTTCCTTGGGTTCTAACCTGTTGCCT (site ATATTTCCTAG)	0.234
AGCAACCCTTGGGTTCTAACCTGTTGCAA (site AGCAACCCTTT)	0.829
AGCAACCCTTGGGTTCTAACCTGTTGCAA (site CCGGGTACTCG)	0.0862
AGCACAACTTGGGTTCTAACCTGTTGCCT (site AGAACAACTAG)	0.0799
AGCACAACTTGGGTTCTAACCTGTTGCCT (site AGCACAACTAG)	0.734
AGCACAACTTGGGTTCTAACCTGTTGCCT (site AGGACAACTAG)	0.0445
AGCACAACTTGGGTTCTAACCTGTTGCCT (site AGTACAACTAG)	0.498
AGCAGAGCTTGGGTTCTAACCTGTTGCAG (site AGCAGAGCTCA)	0.631
AGCAGAGCTTGGGTTCTAACCTGTTGCAG (site AGCAGAGCTCC)	0.224
AGCAGAGCTTGGGTTCTAACCTGTTGCAG (site AGCAGAGCTCG)	0.505
AGCAGAGCTTGGGTTCTAACCTGTTGCAG (site AGCAGAGCTCT)	2.24
AGCAGAGCTTGGGTTCTAACCTGTTGCCG (site AGCAGAGCTCA)	0.0348
AGCAGAGCTTGGGTTCTAACCTGTTGCCG (site AGCAGAGCTCC)	0.058
AGCAGAGCTTGGGTTCTAACCTGTTGCCG (site AGCAGAGCTCG)	1.15
AGCAGAGCTTGGGTTCTAACCTGTTGCCG (site AGCAGAGCTCT)	0.465
AGCAGTGCTTGGGTTCTAACCTGTTGCCT (site AGCAGTGCTAG)	0.686
AGCAGTGCTTGGGTTCTAACCTGTTGCCT (site AGCATTCCTAG)	0.0332
AGCATCCCTTGGGTTCTAACCTGTTGCTG (site AGCATCCCTCA)	1.47
AGCATCCCTTGGGTTCTAACCTGTTGCTG (site CATGCGACTAC)	0.342
AGCCACTCTTGGGTTCTAACCTGTTGCCT (site AGCCACACTAG)	0.0426
AGCCACTCTTGGGTTCTAACCTGTTGCCT (site AGCCACCCTAG)	0.149
AGCCACTCTTGGGTTCTAACCTGTTGCCT (site AGCCACGCTAG)	0.153
